According to patent US10308620B2, “Muscarinic M1 receptor positive allosteric modulators” (SUVEN LIFE SCIENCES LIMITED, priority 2015, dated 2019):
Where a name gives a salt, the structure may show the parent alone.

molecular target: recombinant human Muscarinic M1 receptor (Homo sapiens (Human), UniProt P11229); experiment: Allosteric potency EC50, CHO cells with pCRE-Luc reporter, in presence of EC20 of acetylcholine; assay type: cell-based; conditions: 4 hours
Protocol: Determination of Allosteric Potency EC50 Values for Muscarinic M1 Receptor:
A stable CHO cell line expressing recombinant human Muscarinic M1 receptor and pCRE-Luc reporter system was used for cell-based assay. The assay offers a non-radioactive based approach to determine binding of a compound to GPCRs. In this specific assay, the level of intracellular cyclic AMP which is modulated by activation or inhibition of the receptor is measured. The recombinant cells harbor luciferase reporter gene under the control of cAMP response element.
The above cells were grown in 96 well clear bottom white plates in Hams F12 medium containing 10% fetal bovine serum (FBS). Prior to the addition of compounds or standard agonist, cells were serum starved overnight. Increasing concentrations of test compounds were added along with EC20 of acetylcholine in OptiMEM medium to the cells. The incubation was continued at 37° C. in CO2 incubator for 4 hours. Medium was removed and cells were washed with phosphate buffered saline. The cells were lysed and luciferase activity was measured in a Luminometer. Luminescence units were plotted against the compound concentrations using Graphpad software. EC50 values of the compounds were defined as the concentration required in stimulating the luciferase activity by 50% in presence of EC20 of acetylcholine.

Chain of recombinant human Muscarinic M1 receptor (P11229 whole entry): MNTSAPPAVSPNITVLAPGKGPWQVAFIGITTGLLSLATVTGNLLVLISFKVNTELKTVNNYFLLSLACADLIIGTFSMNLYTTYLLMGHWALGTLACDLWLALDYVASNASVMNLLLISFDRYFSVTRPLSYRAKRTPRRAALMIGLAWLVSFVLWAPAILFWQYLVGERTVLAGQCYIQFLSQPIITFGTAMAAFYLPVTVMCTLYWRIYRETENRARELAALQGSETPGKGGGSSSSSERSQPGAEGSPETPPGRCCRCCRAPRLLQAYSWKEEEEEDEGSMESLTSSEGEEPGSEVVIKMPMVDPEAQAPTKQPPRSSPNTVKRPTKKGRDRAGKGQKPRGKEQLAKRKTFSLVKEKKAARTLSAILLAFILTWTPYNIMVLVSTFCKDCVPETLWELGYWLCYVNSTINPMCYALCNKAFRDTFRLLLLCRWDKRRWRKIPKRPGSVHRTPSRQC

Point of comparison: `O=C(N[C@H]1CCCC[C@@H]1O)C1=CN(Cc2ccc(Cl)nc2)c2ccccc2[S+]1[O-]` (stereo partly drawn) [Example 97, N-(cis-1S, 2S-2-Hydroxycyclohexyl)-4-{2-chloropyridin-5-ylmethyl}-1-oxo-4H-benzo[1,4]thiazine-2-carboxamide], EC50 1.06 µM. Against it:
- CC(C)(O)CNC(=O)C1=CN(Cc2cccc(F)c2)c2ccccc2O1 [Example 8, N-(2-Hydroxy-2-methylpropyl)-4-(3-fluorobenzyl)-4H-benzo[1,4]oxazine-2-carboxamide] — 2.7-fold higher, 2.89 µM
- O=C(Nc1ccccc1CO)C1=CN(Cc2cccc(F)c2F)c2cccc(F)c2O1 [Example 44, N-(2-Hydroxymethylphenyl)-4-(2,3-difluorobenzyl)-8-fluoro-4H-benzo[1,4]oxazine-2-carboxamide] — within 1.5-fold, 1.28 µM
- CC(C)(O)CNC(=O)C1=CN(Cc2ccc(F)cc2)c2ccccc2O1 [Example 14, N-(2-Hydroxy-2-methylpropyl)-4-(4-fluorobenzyl)-4H-benzo[1,4]oxazine-2-carboxamide] — within 1.5-fold, 1.36 µM
- O=C(N[C@H]1CCCC[C@@H]1O)C1=CN(Cc2ccccc2)c2ccccc2S1 [Example 87, N-(cis-1S,2S-2-Hydroxycyclohexyl)-4-benzyl-4H-benzo[1,4]thiazine-2-carboxamide] — 8.1-fold lower, 0.131 µM
- O=C(N[C@H]1CCCC[C@@H]1O)C1=CN(Cc2cccc(F)c2)c2ccccc2[S+]1[O-] (stereo partly drawn) [Example 95, N-(cis-1S,2S-2-Hydroxycyclohexyl)-4-{3-fluorobenzyl}-1-oxo-4H-benzo[1,4]thiazine-2-carboxamide] — within 1.5-fold, 1.52 µM
- O=C(NC1CCNCC1F)C1=CN(Cc2cccc(F)c2F)c2cccc(F)c2O1 (centres unmarked) [Example 74, N-(3-Fluoropiperidin-4-yl)-4-(2,3-difluorobenzyl)-8-fluoro-4H-benzo[1,4]oxazine-2-carboxamide hydrochloride] — 2-fold higher, 2.1 µM
- O=C(N[C@H]1CCCC[C@@H]1O)C1=CN(Cc2ccccc2F)c2c(F)ccc(F)c2O1 [Example 61, N-(cis-1S,2S-2-Hydroxycyclohexyl)-4-(2-fluorobenzyl)-5,8-difluoro-4H-benzo[1,4]oxazine-2-carboxamide] — 4.8-fold lower, 0.219 µM
- O=C(N[C@H]1CCCC[C@@H]1O)C1=CN(Cc2cccc(F)c2F)c2cccc(F)c2O1 [Example 29, N-(cis-1S,2S-2-Hydroxycyclohexyl)-4-(2,3-difluorobenzyl)-8-fluoro-4H-benzo[1,4]oxazine-2-carboxamide] — 7.6-fold lower, 0.14 µM
- Cc1cc(-c2cc(CN3C=C(C(=O)N[C@H]4CCCC[C@@H]4O)Oc4ccccc43)ccn2)cnc1F [Example 58, N-(cis-1S,2S-2-Hydroxycyclohexyl)-4-(6′-fluoro-5′-methyl-[2,3′]bipyridinyl-4-ylmethyl)-4H-benzo[1,4]oxazine-2-carboxamide] — within 1.5-fold, 1.34 µM
- O=C(N[C@H]1CCCC[C@@H]1O)C1=CN(Cc2cccc(F)c2)c2cccnc2O1 [Example 36, N-(cis-1S,2S-2-Hydroxycyclohexyl)-1-(3-fluorobenzyl)-1H-pyrido[2,3-b][1,4]oxazine-3-carboxamide] — within 1.5-fold, 1.54 µM
- COc1ccc(CN2C=C(C(=O)N[C@H]3CCCC[C@@H]3O)Oc3ccccc32)cn1 [Example 15, N-(cis-1S,2S-2-Hydroxycyclohexyl)-4-(2-methoxypyridin-5-ylmethyl)-4H-benzo[1,4]oxazine-2-carboxamide] — 1.8-fold lower, 0.591 µM
- O=C(NC1CCNCC1O)C1=CN(Cc2cccc(F)c2F)c2cccc(F)c2O1 (centres unmarked) [Example 75, N-(3-Hydroxypiperidin-4-yl)-4-(2,3-difluorobenzyl)-8-fluoro-4H-benzo[1,4]oxazine-2-carboxamide trifluoroacetate] — 6.6-fold lower, 0.16 µM
- O=C(N[C@H]1CCCC[C@@H]1O)C1=CN(Cc2cccc(F)c2)c2ccccc2S1 [Example 86, N-(cis-1S,2S-2-Hydroxycyclohexyl)-4-(3-fluorobenzyl)-4H-benzo[1,4]thiazine-2-carboxamide] — within 1.5-fold, 0.936 µM
- O=C(N[C@H]1CCCC[C@@H]1O)C1=CN(Cc2ccncc2F)c2ccccc2O1 [Example 34, N-(cis-1S,2S-2-Hydroxycyclohexyl)-4-(3-fluoropyridin-4-ylmethyl)-4H-benzo[1,4]oxazine-2-carboxamide] — within 1.5-fold, 1.52 µM
- O=C(N[C@H]1CCCC[C@@H]1O)C1=CN(Cc2ccccc2)c2ccccc2[S+]1[O-] (stereo partly drawn) [Example 94, N-(cis-1S,2S-2-Hydroxycyclohexyl)-4-benzyl-1-oxo-4H-benzo[1,4]thiazine-2-carboxamide] — within 1.5-fold, 1.4 µM
- O=C(N[C@H]1CCCC[C@@H]1O)C1=CN(Cc2ccccc2C(F)(F)F)c2ccccc2O1 [Example 37, N-(cis-1S, 2S-2-Hydroxycyclohexyl)-4-(2-trifluoromethylbenzyl)-4H-benzo[1,4]oxazine-2-carboxamide] — 2-fold lower, 0.534 µM
- O=C(Nc1ccccc1CO)C1=CN(Cc2cccc(F)c2F)c2ccccc2O1 [Example 45, N-(2-Hydroxymethylphenyl)-4-(2,3-difluorobenzyl)-4H-benzo[1,4]oxazine-2-carboxamide] — within 1.5-fold, 1.58 µM
- O=C(N[C@H]1CCCC[C@@H]1O)C1=CN(Cc2ccccc2F)c2cccc(F)c2O1 [Example 2, N-(cis-1S,2S-2-Hydroxycyclohexyl)-4-(2-fluorobenzyl)-8-fluoro-4H-benzo[1,4]oxazine-2-carboxamide] — 7.9-fold lower, 0.134 µM
- O=C(N[C@H]1CCCC[C@@H]1O)C1=CN(Cc2ccc(Cl)nc2)c2ccccc2S1 [Example 91, N-(cis-1S,2S-2-Hydroxycyclohexyl)-4-{2-chloropyridin-5-ylmethyl}-4H-benzo[1,4]thiazine-2-carboxamide] — 7.5-fold lower, 0.141 µM
- O=C(N[C@H]1CCCC[C@@H]1O)C1=CN(Cc2ccccc2Cl)c2cccc(F)c2O1 [Example 38, N-(cis-1S, 2S-2-Hydroxycyclohexyl)-4-(2-chlorobenzyl)-8-fluoro-4H-benzo[1,4]oxazine-2-carboxamide] — 4-fold lower, 0.262 µM
- O=C(N[C@H]1CCCC[C@@H]1O)C1=CN(Cc2ccc(F)cc2)c2ncccc2O1 [Example 35, N-(cis-1S,2S-2-Hydroxycyclohexyl)-4-(4-fluorobenzyl)-4H-pyrido[3,2-b][1,4]oxazine-2-carboxamide] — within 1.5-fold, 1.58 µM
- O=C(N[C@H]1CCCC[C@@H]1O)C1=CN(Cc2ccccn2)c2ccccc2O1 [Example 25, N-(cis-1S,2S-2-Hydroxycyclohexyl)-4-(pyridin-2-ylmethyl)-4H-benzo[1,4]oxazine-2-carboxamide] — within 1.5-fold, 0.911 µM
- O=C(Nc1ccccc1CO)C1=CN(Cc2ccccc2F)c2ccccc2O1 [Example 43, N-(2-Hydroxymethylphenyl)-4-(2-fluorobenzyl)-4H-benzo[1,4]oxazine-2-carboxamide] — 1.5-fold higher, 1.62 µM
- O=C(N[C@H]1CCCC[C@@H]1O)C1=CN(Cc2ccccc2)c2cccc(F)c2O1 [Example 48, N-(cis-1S,2S-2-Hydroxycyclohexyl)-4-benzyl-8-fluoro-4H-benzo[1,4]oxazine-2-carboxamide] — 7.4-fold lower, 0.143 µM
- O=C(Nc1ccccc1CO)C1=CN(Cc2ccccc2F)c2cccc(F)c2O1 [Example 46, N-(2-Hydroxymethylphenyl)-4-(2-fluorobenzyl)-8-fluoro-4H-benzo[1,4]oxazine-2-carboxamide] — within 1.5-fold, 1.08 µM
- O=C(N[C@H]1CCCC[C@@H]1O)C1=CN(Cc2cccc(F)c2F)c2ccccc2[S+]1[O-] (stereo partly drawn) [Example 93, N-(cis-1S,2S-2-Hydroxycyclohexyl)-4-(2,3-difluorobenzyl)-1-oxo-4H-benzo[1,4]thiazine-2-carboxamide] — within 1.5-fold, 0.906 µM
- COc1ccc(CN2C=C(C(=O)NCC(C)(C)O)Oc3ccccc32)cn1 [Example 16, N-(2-Hydroxy-2-methylpropyl)-4-(2-methoxypyridin-5-ylmethyl)-4H-benzo[1,4]oxazine-2-carboxamide] — within 1.5-fold, 1.35 µM
- O=C(N[C@H]1CCCC[C@@H]1O)C1=CN(Cc2ccccn2)c2c(F)cccc2O1 [Example 56, N-(cis-1S,2S-2-Hydroxycyclohexyl)-4-(pyridin-2-ylmethyl)-5-fluoro-4H-benzo[1,4]oxazine-2-carboxamide] — within 1.5-fold, 1.49 µM
- O=C(N[C@H]1CCCC[C@@H]1O)C1=CN(Cc2ccnc(Cl)c2)c2ccccc2O1 [Example 24, N-(cis-1S,2S-2-Hydroxycyclohexyl)-4-(2-chloropyridin-4-ylmethyl)-4H-benzo[1,4]oxazine-2-carboxamide] — 2.1-fold lower, 0.514 µM
- O=C(N[C@H]1CCCC[C@@H]1O)C1=CN(Cc2ccccc2F)c2c(F)cccc2O1 [Example 55, N-(cis-1S,2S-2-Hydroxycyclohexyl)-4-(2-fluorobenzyl)-5-fluoro-4H-benzo[1,4]oxazine-2-carboxamide] — within 1.5-fold, 0.828 µM
- COc1cc(CN2C=C(C(=O)NCC(C)(C)O)Oc3ccccc32)ccn1 [Example 12, N-(2-Hydroxy-2-methylpropyl)-4-(2-methoxypyridin-4-ylmethyl)-4H-benzo[1,4]oxazine-2-carboxamide] — within 1.5-fold, 1.51 µM
- O=C(N[C@H]1CCCC[C@@H]1O)C1=CN(Cc2ccc(F)cc2)c2ccccc2O1 [Example 13, N-(cis-1S,2S-2-Hydroxycyclohexyl)-4-(4-fluorobenzyl)-4H-benzo[1,4]oxazine-2-carboxamide] — within 1.5-fold, 0.907 µM
- O=C(N[C@@H]1CCC[C@H]1O)C1=CN(Cc2cccc(F)c2F)c2cccc(F)c2O1 [Example 42, N-(trans-1R,2R-2-Hydroxycyclopentyl)-4-(2,3-difluorobenzyl)-8-fluoro-4H-benzo[1,4]oxazine-2-carboxamide] — 1.5-fold lower, 0.686 µM
- O=C(N[C@H]1CCCC[C@@H]1O)C1=CN(Cc2ccnc(-c3ccccc3)c2)c2cccc(F)c2O1 [Example 53, N-(cis-1S,2S-2-Hydroxycyclohexyl)-4-(2-phenylpyridin-4-ylmethyl)-8-fluoro-4H-benzo[1,4]oxazine-2-carboxamide] — 4.6-fold lower, 0.23 µM
